Activity calls are given as the source filed them. No rule for the calls is given here.

This assay in a line: CD40 pathway inhibition in B cells – B cell lineage, dose response (AID 1259332).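 Also: cells stimulated with CD40 ligand tCD40L; 0% = neutral control wells and -100% = positive control wells.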 Conditions: B cell line, CD40 signaling inhibition reporter.

Consider `C[C@@H]1CN([C@H](C)CO)C(=O)c2c(c3ccccc3n2C)-c2ccccc2CO[C@H]1CN(C)C(=O)c1cc(Cl)cc(Cl)c1`, for which, for the setting “at 10 µM (top of the series)”, the activity change, negative = inhibition is -4.87% (inactive). In the case of `NS(=O)(=O)c1nn2cc(-c3ccccc3)nc2s1`, the activity change, negative = inhibition (at 10 µM (top of the series)) was -27.6% (inactive).

As to `CCc1cnc(N2[C@H](C#N)[C@@H](c3ccc(C#CC(C)C)cc3)[C@H]2CO)s1`, for the setting “at 3.5 µM (top of the series)”, the activity change, negative = inhibition was 8.53% (inactive).

As to `N#C[C@H]1[C@H](c2ccc(C#CC3CCCCC3)cc2)[C@@H](CO)N1C(=O)Nc1ccc(F)cc1`, under “at 3.5 µM (top of the series)”, the activity change, negative = inhibition is -2.23% (inactive). `COCCn1c(C)cc(C(=O)COC(=O)c2ccc(Br)o2)c1C`: the activity change, negative = inhibition (at 10 µM (top of the series)) is -11.7% (inactive). Same read-out and setting: with `OC1(c2ccc(Cl)c(C(F)(F)F)c2)CCN(CCCC(c2ccc(F)cc2)c2ccc(F)cc2)CC1` the figure was 3.82% (inactive); with `COc1cccc(OC)c1OCCNCC1COc2ccccc2O1` (stereo unspecified), 18.1% (inactive). For `Fc1ccccc1/C=C1\CCCC2=C1Nc1nnnn1C2c1ccccc1F` (stereo unspecified), the activity change, negative = inhibition (at 10 µM (top of the series)) is -1.53% (inactive). Take `CCCNC(=O)c1cc2c(c(-c3cccc(-c4cc5ccccc5o4)c3)n1)[C@H](CCO)N(C(=O)NC(C)C)C2`: the activity change, negative = inhibition (at 3.5 µM (top of the series)) is 4.19% (inactive). `O=C(Nc1ccc(C(F)(F)F)cc1)Nc1ccc2c(c1)[C@H]1C[C@@H](CC(=O)N3CCc4ccccc4C3)O[C@H](CO)[C@H]1O2`: for the setting “at 3.5 µM (top of the series)”, the activity change, negative = inhibition is 0.714% (inactive). The same measure, in the same setting: the result for `Cc1ccc(-c2cc(C(=O)N3CC(C)OC(C)C3)c3ccccc3n2)o1` (stereo unspecified) reads 26% (inactive). In the case of `CC(=O)Nc1ccc(S(=O)(=O)c2ccc(N)cc2)cc1`, for the setting “at 10 µM (top of the series)”, the activity change, negative = inhibition is 0.776% (inactive).

With `Oc1cc(O)cc(/C=C/c2ccc(O)c(O)c2)c1`, the activity change, negative = inhibition (at 10 µM (top of the series)) was -10.7% (inactive). On to `Cc1noc(C)c1NC(=O)N(C)C[C@@H]1OCCCC[C@@H](C)Oc2ccc(NC(=O)Nc3ccc(C(F)(F)F)cc3)cc2C(=O)N([C@H](C)CO)C[C@H]1C`, for which the activity change, negative = inhibition (at 3.5 µM (top of the series)) was -11.7% (inactive). Turning to `CCCC(C)Sc1nc2c([nH]1)c(=S)n(C)c(=O)n2C` (stereo unspecified), the activity change, negative = inhibition (at 10 µM (top of the series)) was -8.82% (inactive). Still for that read-out and setting: with `Cc1ccc(C(CC(=O)NCc2ccco2)c2ccc(OC(C)C)cc2)cc1` (stereo unspecified) the figure was 3.92% (inactive). On the same count and under the same terms, with `CCc1cc2c(=O)c(-c3ccc4c(c3)OCCO4)coc2c(CN2CCCCC2C)c1O` (stereo unspecified) the figure was 1.98% (inactive); with `Cc1noc(C)c1S(=O)(=O)Nc1ccc2c(c1)C(=O)N([C@@H](C)CO)C[C@H](C)[C@@H](CN(C)C(=O)Nc1cccc3ccccc13)OCCCC[C@H](C)O2`, -10.1% (inactive). Turning to `O=C(Nc1ccc(C(F)(F)F)cc1)Nc1ccc2c(c1)[C@H]1C[C@@H](CC(=O)N3CCc4ccccc4C3)O[C@@H](CO)[C@H]1O2`, for the setting “at 3.5 µM (top of the series)”, the activity change, negative = inhibition was -2.03% (inactive). In the case of `CCCNC(=O)N1[C@H](CO)[C@H](c2ccc(-c3cccc(OC)c3)cc2)[C@@H]1C#N`, under “at 3.5 µM (top of the series)”, the activity change, negative = inhibition was 12% (inactive). Consider `O=C1C(O)CC2c3ccccc3CC3(CCCC3)N12` (stereo unspecified), for which, under “at 10 µM (top of the series)”, the activity change, negative = inhibition is 0.899% (inactive).

Regarding `C[C@@H]1CN([C@@H](C)CO)C(=O)c2ccccc2-c2ccccc2CO[C@@H]1CN(C)C(=O)c1cc(Cl)cc(Cl)c1`, under “at 10 µM (top of the series)”, the activity change, negative = inhibition is -6.79% (inactive).

Regarding `O=C1Cc2c([nH]c3ccc(Br)cc23)-c2ccccc2N1`, where the note is “at 10 µM (top of the series)”, the activity change, negative = inhibition is 17.8% (inactive).

As to `C[C@H](CO)N1C[C@H](C)[C@H](CN(C)CC2CCCCC2)Oc2ccc(NC(=O)Nc3ccc(C(F)(F)F)cc3)cc2C1=O`, the activity change, negative = inhibition (at 3.5 µM (top of the series)) was 4.59% (inactive). For `CCc1cnc(N2[C@H](C#N)[C@H](c3ccc(C#CCC4CCCC4)cc3)[C@@H]2CO)s1`, the activity change, negative = inhibition (at 0.35 µM (top of the series)) was 4.84% (inactive). Regarding `COc1cccc(S(=O)(=O)N(C)C[C@@H]2OCc3ccccc3-c3c(n(C)c4ccccc34)C(=O)N([C@@H](C)CO)C[C@@H]2C)c1`, under “at 10 µM (top of the series)”, the activity change, negative = inhibition was 8.02% (inactive).

Values taken from PubChem BioAssay AID1259332 (Broad Institute, 2017).
